Like-named read-outs stand apart in the source and are kept apart here.
How the values were obtained:
[1] = test system: chicks
Excerpt: The chicks hatched according to the methods of Examples 2 and 3 are shipped to a broiler facility and raised to maturity. No additional changes to grow-out methods are made. A total of about 4 million eggs are set per month and the saleable chicks are sent to the grow-out facility. […] The wholesale price of a broiler is currently estimated at $0.85 per pound. […] See the http:///.nationalchickencouncil.org available on the web.

[2] = test system: Total bacteria
Excerpt: (§1) Hatcheries and chick production facilities are subject to heavy bacterial loads that are difficult to control. In addition to the animals themselves, there is a significant contamination of the facilities from the outside.

[3] = test system: Other blue green
Excerpt: as §1

[4] = test system: Aspergillus fumigatus
Excerpt: as §1

[5] = test system: Influenza A (H1N1)
Protocol: Glass slides (1″×3″) are ethanol-sanitized and autoclaved prior to testing. The slides (carriers) are placed into sterile plastic petri dishes until use. Aliquots (0.010 ml) of diluted stock Influenza A (H1N1) are aseptically spread over a 1″×1″ square area of the carrier slide to prepare a virus film.
Virus Control carriers are placed into an adjacent modular room with the lids removed. One additional glass slide (with no virus film) is also placed into each testing chamber to perform cytotoxicity and neutralization validation controls. Upon closure of the respective study contact times (T=60 min and T=120 min), duplicate carriers are removed from each testing chamber. Duplicate carriers are also removed from the control modular room at each time point. Duplicate time zero carriers are harvested and enumerated promptly by eluting the films with 2 ml of Influenza Infection Medium. Serial dilutions (1:10) are performed and dilutions 10^−1 to 10^−5 are plated in quadruplicate onto Madin-Darby Canine Kidney (MDCK) cell monolayers prepared to suitable confluency. Cell culture assay trays are incubated at 35° C. on an orbital rotator (60 rotations/minute) for 60 minutes to facilitate viral-host adsorption. Trays are removed from incubation, and Influenza infection Media is pipetted into each well (˜1.0 ml). The trays are incubated for 7 days. The assay trays are observed regularly for the presence of cytotoxicity, viral cytopathic effects, and contamination. At the end of 7 days, plates are scored and the Spearman-Karber Method is used to compute viral titers and levels of cytotoxicity.

[6] = test system: Salmonella; details: hatchery environment (egg room and incubators); after 28 days
[7] = Hood Chamber, 60 minutes contact
[8] = Hood Chamber, 120 minutes contact
[9] = Modular Room, 60 minutes contact, DHP 0.6 to 1.0 ppm
[10] = Modular Room, 120 minutes contact, DHP 0.6 to 1.0 ppm

OO [DHP, dry hydrogen peroxide]
Mortality Rate ([1]; After DHP treatment, grow-out facility): 2.2% | Net increase (# Broilers) ([1]; After DHP treatment, per month): 308,678 | reduction of mortality ([1]; at the grow-out facility): about 7.8% | increase in overall production ([1]; per month): over 300,000 broilers | reduction of bacterial loads in hatcheries ([2]; DHP treatment): over 90% | Kill ([2]; Total (sum of all categories)): 650019 | Post ([2]; Total (sum of all categories)): 50167 | Kill ([2]; Total bacteria): 550037 | Reduction ([2]; Total bacteria): 91.65% | Post ([2]; Total bacteria, hatchery after DHP): 50110 | Kill [3]: 49983 | Reduction [3]: 99.89% | Post ([3]; hatchery after DHP): 56 | Kill [4]: 49999 | Reduction [4]: 99.99% | Post ([4]; hatchery after DHP): 1 | % Reduction [5, 7]: 99.8% | Log10 reduction [5, 7]: >=2.62 | % Reduction [5, 8]: 98.6% | Log10 reduction [5, 8]: >=1.87 | % Reduction [5, 9]: 87% | Log10 reduction [5, 9]: 0.87 | % Reduction [5, 10]: 76% | Log10 reduction [5, 10]: 0.62 | reduction of Salmonella on the egg surface [6]: 83.3%

Source: US10285382B2 (priority 2017, dated 2019)
